Results from ChEMBL document CHEMBL1201862, “PubChem BioAssay data set” (2004).
Activity calls are given as the source filed them.

Key:
H9c2 = test: cells; assay type: functional, cell-based; conditions: Rattus norvegicus, H9c2, Myocardium;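 further: confirmatory concentration-response retest of ultra-high-throughput screening hits for modulation of myocardial damage; cell death induced by hydrogen peroxide oxidative stress; compound pretreatment for 60 min then peroxide exposure for 2 h; potency is for protecting the cells against peroxide damage rather than for killing them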
[1] = cytotoxicity toward NIH3T3 fibroblasts, dose response, counter-screen, cell-based, ATP luminescence, mouse fibroblasts (AID 2010); assay type: functional;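 further: cells exposed to compound for about 90 hours before reading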
[2] = inhibitors of intracellular T. cruzi replication, confirmation, NIH3T3 host cells, beta-gal luminescence (AID 2044); assay type: functional, cell-based;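 further: intracellular parasites grown in NIH/3T3 mouse fibroblasts as host cells; luminescent beta-galactosidase reporter signal from transgenic T. cruzi replicating inside host cells; inhibitors lower the luminescence signal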
Cytochrome P450 2C19 = Cytochrome P450 2C19 (Homo sapiens, UniProt P33261); test: Cytochrome panel assay with activity outcomes. Panel member name: p450-cyp2c19 Compounds with AC50 equal or less than 10 uM are considered active; assay type: functional
Cytochrome P450 2C19, sequence (P33261 whole entry): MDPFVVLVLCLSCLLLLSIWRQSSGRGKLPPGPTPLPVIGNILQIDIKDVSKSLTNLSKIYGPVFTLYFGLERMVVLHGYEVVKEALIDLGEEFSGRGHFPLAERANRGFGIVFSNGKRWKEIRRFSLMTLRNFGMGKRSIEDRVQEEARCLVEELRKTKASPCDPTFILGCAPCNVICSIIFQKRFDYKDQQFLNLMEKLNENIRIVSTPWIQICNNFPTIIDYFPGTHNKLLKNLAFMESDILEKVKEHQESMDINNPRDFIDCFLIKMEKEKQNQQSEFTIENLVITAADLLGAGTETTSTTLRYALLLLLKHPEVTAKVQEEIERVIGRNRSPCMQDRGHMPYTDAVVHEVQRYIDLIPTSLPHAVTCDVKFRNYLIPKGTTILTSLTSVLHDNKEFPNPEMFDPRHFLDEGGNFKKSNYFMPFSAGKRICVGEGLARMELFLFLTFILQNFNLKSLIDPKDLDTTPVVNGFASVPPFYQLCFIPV

Cytochrome P450 1A2 = target: T1, Cytochrome P450 1A2 (Homo sapiens, UniProt P05177);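 further: PubChem cytochrome P450 panel assay, CYP1A2 panel member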
T1 sequence (P05177 whole entry): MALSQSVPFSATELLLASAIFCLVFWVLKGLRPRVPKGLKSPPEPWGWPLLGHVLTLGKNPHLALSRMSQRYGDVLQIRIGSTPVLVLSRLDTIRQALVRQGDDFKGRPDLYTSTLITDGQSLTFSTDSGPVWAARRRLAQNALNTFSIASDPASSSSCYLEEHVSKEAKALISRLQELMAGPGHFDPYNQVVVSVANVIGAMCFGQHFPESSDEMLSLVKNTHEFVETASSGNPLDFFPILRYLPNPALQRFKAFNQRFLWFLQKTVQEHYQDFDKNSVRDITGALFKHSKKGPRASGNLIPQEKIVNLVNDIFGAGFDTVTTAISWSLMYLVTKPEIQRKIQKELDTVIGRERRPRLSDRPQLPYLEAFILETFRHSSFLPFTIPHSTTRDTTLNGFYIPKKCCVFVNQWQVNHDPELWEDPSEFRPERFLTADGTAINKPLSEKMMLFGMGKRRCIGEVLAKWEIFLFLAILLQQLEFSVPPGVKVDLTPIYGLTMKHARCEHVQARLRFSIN

[3] = target: T2, Corticotropin-releasing factor receptor 2/Corticotropin-releasing factor-binding protein (Homo sapiens, UniProt P24387+Q13324); test: activators of CRF receptor 2 with binding protein – uHTS hits, confirmation (AID 602473); assay type: functional; conditions: read-out: EC50_Mean
T2 sequence (Q13324 whole entry): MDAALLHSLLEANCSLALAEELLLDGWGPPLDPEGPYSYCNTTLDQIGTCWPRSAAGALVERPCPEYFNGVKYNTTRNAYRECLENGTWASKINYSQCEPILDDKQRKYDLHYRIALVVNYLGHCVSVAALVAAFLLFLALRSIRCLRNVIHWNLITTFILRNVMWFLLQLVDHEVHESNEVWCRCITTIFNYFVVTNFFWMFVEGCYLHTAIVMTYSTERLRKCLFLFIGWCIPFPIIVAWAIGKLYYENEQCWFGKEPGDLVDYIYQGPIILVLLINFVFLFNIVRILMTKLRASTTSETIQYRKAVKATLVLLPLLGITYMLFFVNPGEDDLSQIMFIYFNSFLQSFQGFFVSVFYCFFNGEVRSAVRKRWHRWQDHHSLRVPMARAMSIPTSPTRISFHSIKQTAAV
T2 sequence (P24387 whole entry): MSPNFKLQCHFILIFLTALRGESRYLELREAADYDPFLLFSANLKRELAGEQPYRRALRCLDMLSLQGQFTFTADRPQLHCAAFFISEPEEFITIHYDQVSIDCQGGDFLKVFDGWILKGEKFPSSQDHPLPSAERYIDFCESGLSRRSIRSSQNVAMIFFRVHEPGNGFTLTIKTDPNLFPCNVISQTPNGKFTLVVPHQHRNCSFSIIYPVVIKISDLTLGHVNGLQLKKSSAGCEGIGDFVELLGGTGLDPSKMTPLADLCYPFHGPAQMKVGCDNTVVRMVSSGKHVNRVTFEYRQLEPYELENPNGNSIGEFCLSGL

Cytochrome P450 2C9 = Cytochrome P450 2C9 (Homo sapiens, UniProt P11712)
Cytochrome P450 2C9, sequence (P11712 whole entry): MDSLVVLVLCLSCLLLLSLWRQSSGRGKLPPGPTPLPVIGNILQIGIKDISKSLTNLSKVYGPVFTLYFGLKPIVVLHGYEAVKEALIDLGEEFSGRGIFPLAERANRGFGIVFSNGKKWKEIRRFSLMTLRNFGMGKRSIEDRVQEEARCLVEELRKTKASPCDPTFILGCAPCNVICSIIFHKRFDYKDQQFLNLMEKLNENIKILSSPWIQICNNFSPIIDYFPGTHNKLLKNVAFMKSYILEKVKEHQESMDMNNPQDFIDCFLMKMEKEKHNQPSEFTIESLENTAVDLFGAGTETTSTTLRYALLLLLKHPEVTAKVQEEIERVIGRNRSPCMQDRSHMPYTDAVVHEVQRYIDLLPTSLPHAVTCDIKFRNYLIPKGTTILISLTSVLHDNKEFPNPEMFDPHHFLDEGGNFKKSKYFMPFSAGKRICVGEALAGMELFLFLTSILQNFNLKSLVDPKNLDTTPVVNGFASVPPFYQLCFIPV

NC(=O)c1ccccc1OCC(=O)NC12CC3CC(CC(C3)C1)C2
IC50 (H9c2): 36.9 µM (inactive)

Cc1ccc(OC(F)F)c(NC(=O)Nc2cccc(C(F)(F)F)c2)c1
EC50 [1]: > 60 µM (not active) | EC50 [2]: 2.41 µM (active)

COc1cc(-c2cc(NC(C)=O)c3ncc(-c4ccc(F)cc4)n3c2)cc(OC)c1OC
IC50 (H9c2): > 79 µM (inactive)

CCOc1cccc(C2C(C(=O)c3ccc(C)o3)=C(O)C(=O)N2Cc2ccncc2)c1 (centres undefined)
AC50 (Cytochrome P450 2C19; read-out: AC50): 39.8 µM (inconclusive) | AC50 (Cytochrome P450 1A2): 39.8 µM (inconclusive)

CCN(CC)S(=O)(=O)c1cccc(C(=O)N/N=C/c2ccccn2)c1
IC50 (H9c2): > 79 µM (inactive)

CCCCCC(=O)NC(=S)NNC(=O)c1ccc([N+](=O)[O-])cc1
EC50 [3]: 5.19 µM (active)

N#CCCn1cc(/C=N/O)c(-c2ccc(Cl)cc2)n1
AC50 (Cytochrome P450 2C9): 15.8 µM (inconclusive)

COc1ccc(-c2nc3cnc(Oc4ccccc4)nc3n(Cc3cccs3)c2=O)cc1
AC50 (Cytochrome P450 2C9): 1.26 µM (inconclusive)

CC(=O)Nc1ccc(Sc2ncccc2C(=O)Nc2ccc(OC(F)(F)F)cc2)cn1
EC50 [3]: 2.96 µM (active)

CCCCNC(=O)c1cc2c(=O)n3cccc(C)c3nc2n(Cc2ccccc2)c1=N
EC50 [1]: > 60 µM (not active) | EC50 [2]: 3.03 µM (active)

CS(=O)(=O)N1CCC[C@@]2(CCN(C(c3ccccc3)c3ccccc3)C2)C1
AC50 (Cytochrome P450 2C19; read-out: AC50): 3.16 µM (inconclusive) | AC50 (Cytochrome P450 1A2): 25.1 µM (inconclusive)

O=C(Cc1nnc(O)c2ccccc12)NCc1ccccn1
IC50 (H9c2): 35.7 µM (inactive)

OCCSCc1cc(Cl)cc(Cl)c1O
AC50 (Cytochrome P450 2C9): 3.98 µM (inconclusive)

O=C(O)CCSCc1ccccc1
AC50 (Cytochrome P450 2C19): inconclusive

CC(OC(=O)Cn1[nH]c(=O)c2ccccc2c1=O)C(=O)Nc1ccc(F)cc1 (centres undefined)
IC50 (H9c2): > 79 µM (inactive)

Cc1nc2ccccc2c(=O)n1-n1cnnc1
AC50 (Cytochrome P450 1A2): 3.16 µM (inconclusive)

COc1cc(C(=O)Nc2nc(OC)c(-c3ccccc3)c(OC)n2)cc(OC)c1OC
IC50 (H9c2): > 79 µM (inactive)

COc1ccc(NC(=O)c2cc(-c3cccnc3)nc3c(C)c(C)ccc23)c(OC)c1
EC50 [1]: > 60 µM (not active) | EC50 [2]: 2.69 µM (active)

COc1cc(-c2cc(C(=O)Nc3cccc(C(C)=O)c3)c3ccccc3n2)cc(OC)c1OC
IC50 (H9c2): > 79 µM (inactive)

O=C(Nc1nc2c(s1)CCCC2)c1ccc(S(=O)(=O)N2CCCc3ccccc32)cc1
EC50 [1]: > 60 µM (inconclusive) | EC50 [2]: 2.07 µM (active)

O=c1[nH]c2c(S)nc(O)nc2n1-c1ccccc1
AC50 (Cytochrome P450 2C19): inconclusive

O=C(c1ccc(-c2nnc(Nc3ccccc3)c3ccccc23)cc1)N1C[C@H]2C[C@H](C1)c1cccc(=O)n1C2
AC50 (Cytochrome P450 2C9): 2 µM (inconclusive) | AC50 (Cytochrome P450 1A2): 14.1 µM (inconclusive)

CC(C)N(CCn1c(=S)[nH]c2ccccc2c1=O)C(C)C
EC50 [3]: 9.1 µM (active)

Cc1s/c(=N\C(=O)c2ccco2)n(C)c1-c1ccc(F)cc1
AC50 (Cytochrome P450 2C19; read-out: AC50): 3.55 µM (inconclusive)

O=[N+]([O-])c1ccc(C[S+]([O-])Cc2ccccc2)cc1 (centres undefined)
AC50 (Cytochrome P450 1A2): 3.16 µM (inconclusive)

Cc1ccc(C(C(=O)NCc2ccccc2)N(Cc2cccs2)C(=O)c2ccc3c(c2)OCCO3)cc1 (centres undefined)
IC50 (H9c2): > 79 µM (inactive)

N#Cc1c(-c2ccc(F)cc2)cc(-c2ccccc2)nc1SCC(=O)NCC(=O)O
EC50 [3]: 5.47 µM (active)

N=C(N)N/N=C/c1ccc(Br)cc1
EC50 [1]: 6.37 µM (active) | EC50 [2]: 0.141 µM (active)

COc1ccc(-c2csc(NC(=O)c3ccc(OCC(=O)N4CCOCC4)c(OC)c3)n2)cc1OC
IC50 (H9c2): > 79 µM (inactive)

CN(C)C(=O)COC(=O)[C@H](Cc1ccccc1)NC(=O)c1ccco1
EC50 [3]: 19.4 µM (active)

CC(C)(O)c1cn(-c2nonc2N)nn1
AC50 (Cytochrome P450 2C19; read-out: AC50): 3.16 µM (inconclusive) | AC50 (Cytochrome P450 1A2): 39.8 µM (inconclusive)

COc1ccc(OC)c(/C=N/Nc2nncn2/N=C/c2cc(OC)ccc2OC)c1
IC50 (H9c2): > 79 µM (inactive)

CN(Cc1c[nH]c2ccccc12)C1CCCCC1
EC50 [1]: 23.9 µM (active) | EC50 [2]: 0.699 µM (active)

CC(C)=CCc1ccc(=O)c(O)cc1C(C)C
IC50 (H9c2): > 79 µM (inactive)

CSc1ccc2c(c1)N(CC[C@H]1CCCCN1C)c1ccccc1S2
AC50 (Cytochrome P450 2C19; read-out: AC50): 20 µM (inconclusive)

N#Cc1ccc(-c2ccc(OCC(O)CN3CCCCC3)cc2)cc1 (centres undefined)
EC50 [1]: 12.1 µM (active) | EC50 [2]: 1.98 µM (active)

CC(=O)N(C)c1nnc(-c2cnccn2)s1
AC50 (Cytochrome P450 2C19): inconclusive

COc1ccc(NC(=O)CN(C)C(=O)Cc2nnc(O)c3ccccc23)cc1
IC50 (H9c2): 19.6 µM (active)

O=C(CN(C(=O)Cn1nnc(-c2cccs2)n1)c1cnc2ccccc2c1)NCC1CCCO1 (centres undefined)
IC50 (H9c2): 75.1 µM (inactive)

Cc1sc2nc(SCC(=O)N3CCOCC3)nc(O)c2c1C
IC50 (H9c2): > 79 µM (inactive)

COc1ccc(NC(=O)CCCc2nc(O)c3ccccc3n2)cc1Cl
IC50 (H9c2): > 79 µM (inactive)

C=CCN1C(=O)c2cccc3c(N4CCCCC4)ccc(c23)C1=O
EC50 [3]: 5.47 µM (active)

O=C(CSc1nnc(COc2ccc(F)cc2)o1)N1c2ccccc2CCc2ccccc21
EC50 [1]: > 60 µM (not active) | EC50 [2]: 1 µM (active)

O=C(COc1ccc(F)cc1)Nc1cc(S(=O)(=O)N2CCCCC2)ccc1N1CCCCC1
EC50 [1]: > 60 µM (not active) | EC50 [2]: 2.15 µM (active)

CC(C)(C)C(C(Oc1ccc(Cl)cc1)n1cncn1)n1nnnc1C(c1cccc(Cl)c1)N1CCCCC1 (centres undefined)
EC50 [1]: > 60 µM (not active) | EC50 [2]: 1.59 µM (active)

CN(Cc1ccco1)c1cc(-c2cccnc2)ncn1
AC50 (Cytochrome P450 2C19; read-out: AC50): 20 µM (inconclusive)

Cc1ccc(C(=O)N/C(=C\c2ccc(-c3ccc([N+](=O)[O-])cc3)o2)C(=O)NC2CCS(=O)(=O)C2)cc1 (centres undefined)
EC50 [3]: 8.22 µM (active)

COc1ccc(-c2nc3cnc(N4CCN(C)CC4)nc3n(C3CC3)c2=O)cc1
AC50 (Cytochrome P450 1A2): 20 µM (inconclusive)

COc1cccc(N2CCN(C(=O)Nc3ccc4c(c3)NC(=O)CO4)CC2)c1
AC50 (Cytochrome P450 2C9): 12.6 µM (inconclusive)

c1csc(CNc2ccnc(-c3ccoc3)n2)c1
AC50 (Cytochrome P450 2C19; read-out: AC50): 31.6 µM (inconclusive)

CCOC(=O)C1CCCN(C(=O)CCCOc2cc(=O)n(C)c3ccccc23)C1 (centres undefined)
AC50 (Cytochrome P450 1A2): 25.1 µM (inconclusive)

N#CCCn1c(=O)c(CCc2ccccc2)nc2cnc(Oc3ccccc3)nc21
AC50 (Cytochrome P450 1A2): 12.6 µM (inconclusive)

NS(=O)(=O)c1cc2c(cc1C(F)(F)F)N[C@H](Cc1ccccc1)NS2(=O)=O
AC50 (Cytochrome P450 1A2): 15.8 µM (inconclusive)

N[C@@H](Cn1cc(I)c(=O)[nH]c1=O)C(=O)O
AC50 (Cytochrome P450 1A2): 39.8 µM (inconclusive)

Cc1ncc(CO)c2c1Oc1nc(-c3ccccc3)nc(SCC(=O)N3CCCCC3)c1C2
IC50 (H9c2): > 79 µM (inactive)

CCCS(=O)(=O)N1CCN(CC2CC=CCC2)CC1 (centres undefined)
AC50 (Cytochrome P450 1A2): 12.6 µM (inconclusive)

CCN(CC)CCNc1nc(-c2ccccc2)c2c(c1C#N)CC(C)(C)OC2
EC50 [1]: > 60 µM (not active) | EC50 [2]: 0.332 µM (active)

CCCCc1nc(O)c2c3c(sc2n1)CCC3
IC50 (H9c2): > 79 µM (inactive)

O=C(CNC(=S)N(Cc1ccccc1)Cc1cccnc1)NC1CCCCC1
EC50 [1]: 11.1 µM (active) | EC50 [2]: 0.516 µM (active)

COc1ccc(C(=O)NN/C=C/C(=O)c2ccc(Br)cc2)cc1
IC50 (H9c2): > 79 µM (inactive)

COc1ccc(-c2cc(C(=O)NC(C)c3ccccn3)c3ccccc3n2)cc1OC (centres undefined)
IC50 (H9c2): > 79 µM (inactive)

NC(=O)CNC(=O)[C@@H]1CC2(CC(c3ccccc3)=NO2)CN1C(=O)c1ccc(Br)cc1 (some centres undefined)
AC50 (Cytochrome P450 2C19; read-out: AC50): 39.8 µM (inconclusive) | AC50 (Cytochrome P450 1A2): 25.1 µM (inconclusive)
